# Measurements from patent publication US12485124B2, “Methods for treating alzheimer disease and for reducing amyloid beta formation” (ARIBIO CO., LTD., priority 2019, dated 2025).
# Key:
# [1] = system: LC3B, p62, APP, Aβ1-42 in Retinoic Acid Differentiated SH-SY5Y Human Neuroblastoma Cell; assay: Western Blot of Autophagy Markers LC3B and p62; format: cell-based; conditions: 3-MA 5 mM together with the present invention; Aβ1-42 Oligomer 1 μM
# Procedure: To extract the proteins, the cells were treated with RIPA Lysis Buffer (Bio-Rad), homogenized, and centrifuged (14,000 rpm, 10 minutes, 4° C.) to obtain the supernatant. 5% Stacking Gel (DW, 30% Acrylamide: Bisacrylamide, 1M Tris pH 6.8, 10% SDS, TEMED, 10% Ammonium Persulfate) and 12% Separating Gel (DW, 30% Acrylamide: Bisacrylamide, 1.5M Tris pH 8.8, 10% SDS, TEMED, 10% Ammonium Persulfate) were used for SDS-PAGE. Supernatant obtained by centrifugation was mixed with 4× Lacmmli Buffer (Bio-Rad) in 3:1 ratio and boiled at 95° C. for 10 minutes to denature the proteins. The mixture was cooled in an ice bath for 10 minutes and span down. Protein Size Marker (Bio-Rad) and each sample were added to Stacking Gel Well prepared in Mini-Protein II Dual-Slab Apparatus (Bio-Rad) and electrophoresed at 150 volt till all are precipitated to the bottom. Polyvinylidene Difluoride (PVDF) Membrane was moistened with methanol to activate and washed with Transfer Buffer (190 mM Glycine, 50 mM Tris-Base, 0.05% SDS, 20% Methanol). Whatman 3M Paper moistened with Transfer Buffer was stacked in Mini Trans-Bolt Cell (Bio-Rad) and run electricity at 200 mA for 60 minutes to deposit the membrane. After the deposition, the membrane was blocked with 5% Skim milk solution (in TBS-T: 10 mM Tris-Base pH 8.0, 150 mM NaCl, 0.1% Tween-20) on a Platform Shaker for 60 minutes. The primary antibodies were diluted in 5% Skim Milk in an optimum concentration for each, put on platform shaker at 4° C. for 16 hours. […] Finally, Membrane was added to SuperSignal™ West Femto Maximum Sensitivity Substrate (Thermo Scientific™) and expressed the color properly before the membrane was scanned using image analysis system and the amount of protein was calculated using Image J Software (NIH, USA). […]
# BACE-1 and Cathepsin B = conditions: reported in J Gerontol a Biol Sci Med Sci 2015; J Urol. 2016; cited from earlier work
Compound,APP formation and Aβ1-42 accumulation [1],Autophagic Flux (LC3B-II/I Ratio) [1],expression of p62 [1],BACE-1 and Cathepsin B expression (BACE-1 and Cathepsin B)
"Cn1cnc(N)c2ncnc1-2 [3-MA, 3-Methyladenine]",APP formation and Aβ1-42 accumulation increased,Autophagic Flux (LC3B-II/I Ratio) increased by the present invention was reduced,expression of p62 reduced by the present invention increased,
CCCc1nn(C)c2c(=O)[nH]c(-c3cc(S(=O)(=O)N4CCN(C)CC4)ccc3OCC)nc12 [Sildenafil],,,,suppressed BACE-1 and Cathepsin B expression
